The experiment has as its system MDA-MB-468 breast. The experiment is described as follows: growth of human tumour cells (NCI), 48 h.

“And” between values parts separate entries of the source, which are not always exact repeats. Identical values can stand only once.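 Where inhibition never reached the appropriate level, the endpoint shown equals the highest concentration tested. Otherwise, values were interpolated linearly from a five-concentration, 48-hour dose response in 96-well plates. GI50 = concentration required for 50% inhibition of growth. Definition used: TGI = concentration required for complete inhibition of growth.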

With `O=C(COc1cccc(/C=C2\COc3ccccc3C2=O)c1)c1ccccc1`, the GI50 was 1.78 µM and the TGI amounted to 4.6 µM.
Turning to `COC(=O)[C@H](Cc1ccccc1)NNC(=O)c1csc([C@@H](C[C@H](C(C)C)N(C)C(=O)[C@@H](NC(=O)[C@H]2CCCCN2C)C2CC2)OC(C)=O)n1`, the GI50 is 0.00652 µM and 0.0025 µM; the TGI is 25 µM and > 100 µM.
For `O=C(NCCCl)NCCN1c2nc3ccccc3cc2Sc2cc3ccccc3nc21`, the GI50 is 1.43 µM and the TGI was 5.42 µM.
For `CON=C1C[C@]2(C[C@@H]3C[C@@H](C/C=C(\C)C[C@@H](C)/C=C/C=C4\CO[C@@H]5[C@H](O)C(C)=C[C@@H](C(=O)O3)[C@]45O)O2)O[C@H](/C(C)=C/C(C)C)[C@H]1C`, the GI50 is 12.8 µM and the TGI was found to be 27.5 µM.

The record behind these values is PubChem BioAssay (NCI).
